Test results taken from patent publication US11208412B2 (DAEGU-GYEONGBUK MEDICAL INNOVATION FOUNDATION, priority 2017, dated 2021).

Legend:
Assay in all cases: Kinase selectivity, DiscoverX scanMAX Kinase assay panel (% control)
Type in all cases: binding
[1] = target: T1, kinases of the scanMAX Kinase assay panel (Homo sapiens, UniProt Q8NEB9); details: kinase VPS34; 1 uM in DMSO
T1 construct: purchased DiscoverX Co. (contract measurement) scanMAX Kinase assay panel
How it was run: (§1)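 Compounds were tested at 1 uM (in DMSO) against each panel kinase. % control was calculated as (compound − positive control)/(negative control − positive control)×100, where the positive control gives 0% and DMSO gives 100%. Activity toward a kinase was called at % control <35%.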

[2] = target: T2, kinases of the scanMAX Kinase assay panel (Homo sapiens, UniProt Q9BRS2); details: kinase RIOK1; 1 uM in DMSO
T2 construct: purchased DiscoverX Co. (contract measurement) scanMAX Kinase assay panel
T2 sequence (Q9BRS2 1-568): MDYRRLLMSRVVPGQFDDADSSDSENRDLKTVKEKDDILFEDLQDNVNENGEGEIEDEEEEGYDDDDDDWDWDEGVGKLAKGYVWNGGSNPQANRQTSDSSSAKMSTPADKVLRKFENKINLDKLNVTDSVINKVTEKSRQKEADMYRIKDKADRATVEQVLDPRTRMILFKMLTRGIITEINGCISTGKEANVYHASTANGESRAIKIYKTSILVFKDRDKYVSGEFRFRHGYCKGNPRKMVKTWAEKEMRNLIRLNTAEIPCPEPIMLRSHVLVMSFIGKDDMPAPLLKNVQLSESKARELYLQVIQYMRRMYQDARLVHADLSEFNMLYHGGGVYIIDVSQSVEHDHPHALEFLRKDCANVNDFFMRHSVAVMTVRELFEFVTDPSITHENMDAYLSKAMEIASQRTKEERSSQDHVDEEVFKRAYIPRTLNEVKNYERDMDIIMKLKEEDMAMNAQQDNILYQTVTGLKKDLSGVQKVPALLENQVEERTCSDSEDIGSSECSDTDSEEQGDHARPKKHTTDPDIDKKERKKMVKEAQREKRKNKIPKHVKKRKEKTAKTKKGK
How it was run: as §1

[3] = target: T3, kinases of the scanMAX Kinase assay panel (Homo sapiens, UniProt P22607, G697C); details: FGFR3(G697C); 1 uM
T3 construct: purchased DiscoverX Co. (contract measurement) scanMAX Kinase assay panel
How it was run: as §1

[4] = target: T4, kinases of the scanMAX Kinase assay panel (Homo sapiens, UniProt Q9UBE8); details: NLK; 1 uM
T4 construct: purchased DiscoverX Co. (contract measurement) scanMAX Kinase assay panel
T4 sequence (Q9UBE8 1-527): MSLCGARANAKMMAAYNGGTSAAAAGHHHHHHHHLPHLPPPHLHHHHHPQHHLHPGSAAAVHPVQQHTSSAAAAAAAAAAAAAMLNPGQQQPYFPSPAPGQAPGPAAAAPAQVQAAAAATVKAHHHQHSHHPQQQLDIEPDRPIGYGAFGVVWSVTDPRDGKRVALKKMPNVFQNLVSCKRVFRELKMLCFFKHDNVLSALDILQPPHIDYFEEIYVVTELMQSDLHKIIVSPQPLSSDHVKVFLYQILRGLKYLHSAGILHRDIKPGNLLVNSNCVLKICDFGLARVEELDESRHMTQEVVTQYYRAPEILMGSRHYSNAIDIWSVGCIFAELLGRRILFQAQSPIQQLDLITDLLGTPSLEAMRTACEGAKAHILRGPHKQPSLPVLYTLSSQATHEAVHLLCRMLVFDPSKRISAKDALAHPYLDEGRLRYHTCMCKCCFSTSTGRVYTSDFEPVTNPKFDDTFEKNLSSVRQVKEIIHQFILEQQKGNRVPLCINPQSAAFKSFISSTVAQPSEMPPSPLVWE
How it was run: as §1

[5] = target: T5, kinases of the scanMAX Kinase assay panel (Homo sapiens, UniProt P42336, E542K); details: PIK3CA(E542K); 1 uM
T5 construct: purchased DiscoverX Co. (contract measurement) scanMAX Kinase assay panel
How it was run: as §1

[6] = target: T6, kinases of the scanMAX Kinase assay panel (Homo sapiens, UniProt Q9H2G2); details: kinase SLK; 1 uM in DMSO
T6 construct: purchased DiscoverX Co. (contract measurement) scanMAX Kinase assay panel
How it was run: as §1

[7] = target: T7, kinases of the scanMAX Kinase assay panel (Homo sapiens, UniProt P45984); details: JNK2; 1 uM
T7 construct: purchased DiscoverX Co. (contract measurement) scanMAX Kinase assay panel
How it was run: as §1

[8] = target: T8, kinases of the scanMAX Kinase assay panel (Homo sapiens, UniProt Q86UE8); details: kinase TLK2; 1 uM in DMSO
T8 construct: purchased DiscoverX Co. (contract measurement) scanMAX Kinase assay panel
How it was run: as §1

[9] = target: T9, kinases of the scanMAX Kinase assay panel (Homo sapiens, UniProt P49336); details: CDK8; 1 uM
T9 construct: purchased DiscoverX Co. (contract measurement) scanMAX Kinase assay panel
How it was run: as §1

T1 sequence (Q8NEB9 whole entry): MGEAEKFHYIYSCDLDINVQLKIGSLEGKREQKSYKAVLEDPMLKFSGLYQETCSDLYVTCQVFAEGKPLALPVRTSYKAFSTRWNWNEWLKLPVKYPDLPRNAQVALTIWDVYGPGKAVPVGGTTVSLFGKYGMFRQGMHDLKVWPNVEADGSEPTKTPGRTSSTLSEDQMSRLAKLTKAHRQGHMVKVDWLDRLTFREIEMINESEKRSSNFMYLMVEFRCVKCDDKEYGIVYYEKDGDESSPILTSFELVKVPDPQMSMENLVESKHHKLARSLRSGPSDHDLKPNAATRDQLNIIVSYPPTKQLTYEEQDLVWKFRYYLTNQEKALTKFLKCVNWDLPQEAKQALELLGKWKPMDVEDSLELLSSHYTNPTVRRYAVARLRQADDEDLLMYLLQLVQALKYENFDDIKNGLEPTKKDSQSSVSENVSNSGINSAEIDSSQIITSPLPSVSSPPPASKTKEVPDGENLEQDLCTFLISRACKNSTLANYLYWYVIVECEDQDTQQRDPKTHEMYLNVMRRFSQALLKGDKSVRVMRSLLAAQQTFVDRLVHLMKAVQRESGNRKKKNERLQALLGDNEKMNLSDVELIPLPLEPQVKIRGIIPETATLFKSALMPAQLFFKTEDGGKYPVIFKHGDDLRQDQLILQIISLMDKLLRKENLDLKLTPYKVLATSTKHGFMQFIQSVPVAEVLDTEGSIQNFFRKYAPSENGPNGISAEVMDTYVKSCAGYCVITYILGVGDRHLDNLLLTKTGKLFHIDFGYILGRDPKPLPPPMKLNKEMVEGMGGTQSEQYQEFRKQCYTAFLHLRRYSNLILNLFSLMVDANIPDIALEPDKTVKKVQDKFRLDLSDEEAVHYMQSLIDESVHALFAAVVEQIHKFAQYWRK
T8 sequence (Q86UE8 whole entry): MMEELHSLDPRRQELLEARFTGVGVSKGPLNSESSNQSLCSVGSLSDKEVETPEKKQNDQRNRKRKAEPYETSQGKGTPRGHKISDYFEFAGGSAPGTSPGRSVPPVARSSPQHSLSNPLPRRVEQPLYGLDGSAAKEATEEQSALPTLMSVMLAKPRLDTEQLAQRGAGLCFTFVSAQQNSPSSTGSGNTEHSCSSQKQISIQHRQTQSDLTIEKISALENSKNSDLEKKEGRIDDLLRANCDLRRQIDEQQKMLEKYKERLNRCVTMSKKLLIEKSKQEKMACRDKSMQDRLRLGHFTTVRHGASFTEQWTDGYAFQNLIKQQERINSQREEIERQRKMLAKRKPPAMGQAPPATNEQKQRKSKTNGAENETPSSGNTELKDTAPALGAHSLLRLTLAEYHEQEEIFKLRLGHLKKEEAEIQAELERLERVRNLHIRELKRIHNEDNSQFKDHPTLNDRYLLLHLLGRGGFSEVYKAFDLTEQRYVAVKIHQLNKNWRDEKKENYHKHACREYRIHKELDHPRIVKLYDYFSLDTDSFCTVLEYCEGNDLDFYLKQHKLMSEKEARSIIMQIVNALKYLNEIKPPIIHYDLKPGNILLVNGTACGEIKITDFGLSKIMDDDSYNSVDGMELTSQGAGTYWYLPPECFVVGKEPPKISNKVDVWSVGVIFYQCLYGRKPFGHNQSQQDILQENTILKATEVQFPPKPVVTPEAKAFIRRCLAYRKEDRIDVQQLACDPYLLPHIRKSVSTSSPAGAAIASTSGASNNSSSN
T7 sequence (P45984 whole entry): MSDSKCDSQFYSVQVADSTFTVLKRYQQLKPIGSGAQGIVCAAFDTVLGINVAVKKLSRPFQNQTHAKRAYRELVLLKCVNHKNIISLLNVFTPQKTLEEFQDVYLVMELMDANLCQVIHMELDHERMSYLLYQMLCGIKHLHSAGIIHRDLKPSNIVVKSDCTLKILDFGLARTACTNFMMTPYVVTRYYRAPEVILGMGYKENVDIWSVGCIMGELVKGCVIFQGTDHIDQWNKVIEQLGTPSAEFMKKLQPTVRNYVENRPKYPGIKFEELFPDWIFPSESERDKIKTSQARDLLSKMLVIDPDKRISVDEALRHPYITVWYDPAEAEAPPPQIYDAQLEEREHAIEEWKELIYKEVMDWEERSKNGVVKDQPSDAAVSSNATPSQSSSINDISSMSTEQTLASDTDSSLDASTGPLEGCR
T6 sequence (Q9H2G2 whole entry): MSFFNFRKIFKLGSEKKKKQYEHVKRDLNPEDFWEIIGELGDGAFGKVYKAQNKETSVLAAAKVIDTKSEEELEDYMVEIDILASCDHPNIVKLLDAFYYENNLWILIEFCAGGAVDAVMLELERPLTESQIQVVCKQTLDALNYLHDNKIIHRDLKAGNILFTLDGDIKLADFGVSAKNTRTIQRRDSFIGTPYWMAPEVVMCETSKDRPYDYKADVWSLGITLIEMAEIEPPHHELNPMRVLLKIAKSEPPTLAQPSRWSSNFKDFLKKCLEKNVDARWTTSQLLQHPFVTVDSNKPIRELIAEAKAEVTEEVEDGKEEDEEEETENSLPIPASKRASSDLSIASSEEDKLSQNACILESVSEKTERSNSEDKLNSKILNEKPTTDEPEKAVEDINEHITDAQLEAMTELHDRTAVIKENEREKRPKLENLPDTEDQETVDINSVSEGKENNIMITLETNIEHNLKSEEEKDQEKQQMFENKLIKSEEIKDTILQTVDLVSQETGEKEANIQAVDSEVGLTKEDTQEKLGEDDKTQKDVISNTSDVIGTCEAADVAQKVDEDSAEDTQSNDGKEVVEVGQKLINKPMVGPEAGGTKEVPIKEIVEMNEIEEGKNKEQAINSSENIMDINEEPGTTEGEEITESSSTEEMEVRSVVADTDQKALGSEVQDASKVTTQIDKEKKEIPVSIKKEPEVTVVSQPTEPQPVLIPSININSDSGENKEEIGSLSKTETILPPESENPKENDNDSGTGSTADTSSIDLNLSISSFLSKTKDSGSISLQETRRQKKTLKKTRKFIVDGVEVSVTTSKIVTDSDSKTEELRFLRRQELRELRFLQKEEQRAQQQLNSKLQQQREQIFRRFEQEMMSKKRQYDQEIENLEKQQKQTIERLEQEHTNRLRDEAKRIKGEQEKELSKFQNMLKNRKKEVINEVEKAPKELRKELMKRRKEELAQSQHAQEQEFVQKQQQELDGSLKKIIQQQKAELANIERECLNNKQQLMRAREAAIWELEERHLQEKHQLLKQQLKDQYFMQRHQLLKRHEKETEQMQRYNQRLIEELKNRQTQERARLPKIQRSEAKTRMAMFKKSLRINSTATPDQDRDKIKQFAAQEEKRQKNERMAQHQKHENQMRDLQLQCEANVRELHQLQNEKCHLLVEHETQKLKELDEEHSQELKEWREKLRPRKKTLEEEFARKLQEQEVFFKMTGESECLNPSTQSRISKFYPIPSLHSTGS
T5 sequence (P42336 whole entry E542K): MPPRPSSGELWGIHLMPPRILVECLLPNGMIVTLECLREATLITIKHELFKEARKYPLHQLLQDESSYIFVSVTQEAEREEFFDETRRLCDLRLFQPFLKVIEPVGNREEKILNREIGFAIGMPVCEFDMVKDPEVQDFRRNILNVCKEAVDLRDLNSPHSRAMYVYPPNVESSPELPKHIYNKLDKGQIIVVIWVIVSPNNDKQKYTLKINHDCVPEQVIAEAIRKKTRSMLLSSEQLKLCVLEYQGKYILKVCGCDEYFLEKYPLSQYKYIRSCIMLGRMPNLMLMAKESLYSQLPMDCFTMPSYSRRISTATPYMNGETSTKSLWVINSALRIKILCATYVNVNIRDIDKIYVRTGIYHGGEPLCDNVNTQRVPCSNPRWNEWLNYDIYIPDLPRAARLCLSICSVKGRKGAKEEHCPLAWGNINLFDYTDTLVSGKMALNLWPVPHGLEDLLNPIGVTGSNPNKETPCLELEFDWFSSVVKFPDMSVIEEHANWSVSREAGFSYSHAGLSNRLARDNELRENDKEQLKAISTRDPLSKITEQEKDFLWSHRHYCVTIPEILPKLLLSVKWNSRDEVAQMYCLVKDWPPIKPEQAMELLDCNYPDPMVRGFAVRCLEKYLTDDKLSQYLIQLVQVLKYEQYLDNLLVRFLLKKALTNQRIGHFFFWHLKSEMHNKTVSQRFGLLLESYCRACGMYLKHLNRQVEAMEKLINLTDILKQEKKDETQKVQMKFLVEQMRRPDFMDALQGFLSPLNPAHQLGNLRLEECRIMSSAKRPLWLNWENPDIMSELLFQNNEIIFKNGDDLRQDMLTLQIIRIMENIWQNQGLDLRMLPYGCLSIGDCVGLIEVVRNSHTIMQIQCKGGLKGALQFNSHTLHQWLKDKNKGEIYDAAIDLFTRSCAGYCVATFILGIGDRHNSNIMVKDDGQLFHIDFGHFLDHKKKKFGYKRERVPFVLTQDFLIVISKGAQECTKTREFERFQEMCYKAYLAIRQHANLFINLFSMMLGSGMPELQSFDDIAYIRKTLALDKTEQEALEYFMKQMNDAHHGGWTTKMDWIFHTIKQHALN
T9 sequence (P49336 whole entry): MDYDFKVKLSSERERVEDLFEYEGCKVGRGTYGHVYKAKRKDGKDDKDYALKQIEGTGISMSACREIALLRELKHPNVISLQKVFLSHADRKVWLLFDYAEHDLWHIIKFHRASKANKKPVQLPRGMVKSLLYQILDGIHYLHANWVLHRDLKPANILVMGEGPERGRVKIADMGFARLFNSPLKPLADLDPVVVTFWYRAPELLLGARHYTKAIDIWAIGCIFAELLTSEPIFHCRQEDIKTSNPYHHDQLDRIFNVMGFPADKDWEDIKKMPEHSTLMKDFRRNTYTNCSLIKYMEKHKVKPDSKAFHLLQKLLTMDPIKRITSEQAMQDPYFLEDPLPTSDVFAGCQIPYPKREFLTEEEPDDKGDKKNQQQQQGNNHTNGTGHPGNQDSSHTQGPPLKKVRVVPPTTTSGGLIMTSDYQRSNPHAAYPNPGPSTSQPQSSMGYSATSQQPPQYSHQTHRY

Compound | remaining binding at 1 µM [1] [%] | remaining binding at 1 µM [2] [%] | remaining binding at 1 µM [3] [%] | remaining binding at 1 µM [4] [%] | remaining binding at 1 µM [5] [%] | remaining binding at 1 µM [6] [%] | remaining binding at 1 µM [7] [%] | remaining binding at 1 µM [8] [%] | remaining binding at 1 µM [9] [%]
CNc1nc(Nc2ccc(C(=O)N3CCOCC3)cc2OC)nc2[nH]cc(C#N)c12 [Example 1, 2-((2-methoxy-4-(morpholine-4-carbonyl)phenyl)amino)-4-(methylamino)-7H-pyrrolo[2,3-d]pyrimidine-5-carbonitrile] | 84 | 100 | 97 | 98 | 74 | 100 | 0.1 | 95 | 100
CC1(Nc2nc(Nc3cnn([C@H]4CCN(C5COC5)C[C@@H]4F)c3Cl)nc3[nH]cc(C#N)c23)CC1 [Example 52, 2-((5-chloro-1-((3S,4S)-3-fluoro-1-(oxetane-3-yl)piperidine-4-yl)-1H-pyrazole-4-yl)amino)((1-methylcyclopropyl)amino)-7H-pyrrolo[2,3-d]pyrimidine-5-carbonitrile] | 100 | 0.7 | 11 | 75 | 77 | 13 | 0 | 42 | 76
CCNc1nc(Nc2ccc(C(=O)N3CCC(N4CCOCC4)CC3)cc2OC)nc2[nH]cc(C(F)(F)F)c12 [Example 104, (4-((4-(ethylamino)-5-(trifluoromethyl)-7H-pyrrolo[2,3-d]pyrimidine-2-yl)amino)-3-methoxyphenyl)(4-morpholinopiperidine-1-yl)methanone] | 78 | 100 | 100 | 69 | 83 | 97 | 23 | 93 | 86
